Test results as given in ChEMBL document CHEMBL3885861, “Open TG-GATES”.

Species: Rattus norvegicus
Experiment: Open TG-GATES - Regimen: Daily Repeat
Format: toxicity, organism-based, Sprague-Dawley
Parameters: regimen Daily Repeat, gender Male, age 6 weeks
Conditions: in vivo, po, 60 mg/kg, route gavage, dose level Low; for APTT / Bas / Eos / Fbg / Hb / Ht / Lym / MCH / MCHC / MCV / Mono / Neu / PT / Plat / RBC / Ret / WBC: tissue Blood; for KIDNEY_L / KIDNEY_R / KIDNEY_TOTAL: tissue Kidney; for LIVER: tissue Liver; for A/G / ALP / ALT / AST / BUN / CRE / Ca / Cl / DBIL / GLC / IP / K / LDH / Na / PL / RALB / TBIL / TC / TG / TP / gamma-GTP: tissue Plasma

Compound C[C@](N)(Cc1ccc(O)c(O)c1)C(=O)O [METHYLDOPA] has a TERMINAL_BW (72 h, time 3 day) of 205.8 g, an APTT (72 h, time 3 day) of 17.3 s and a Bas (72 h, time 3 day) of 0%. The Eos (72 h, time 3 day) was 1%, the Fbg (72 h, time 3 day) was 249 mg/dL and the Hb (72 h, time 3 day) was 13.5 g/dL. The Ht (72 h, time 3 day) was 39.1%, the Lym (72 h, time 3 day) was 77.8% and the MCH (72 h, time 3 day) was 21.6 pg. For the same compound, the MCHC (72 h, time 3 day) was 34.4%, the MCV (72 h, time 3 day) was 62.9 fL and the Mono (72 h, time 3 day) was 2.8%. It also gave a Neu (72 h, time 3 day) of 17.8%, a PT (72 h, time 3 day) of 12.6 s and a Plat (72 h, time 3 day) of 102.6 x10_4/uL. It also gave an RBC (72 h, time 3 day) of 623.2 x10_4/ul, a Ret (72 h, time 3 day) of 7.7% and a WBC (72 h, time 3 day) of 71 x10_2/uL. It also gave a KIDNEY_L (72 h, time 3 day) of 0.9 g, a KIDNEY_R (72 h, time 3 day) of 0.9 g and a KIDNEY_TOTAL (72 h, time 3 day) of 1.8 g. For the same compound, the LIVER (72 h, time 3 day) was 8.9 g, the A/G (72 h, time 3 day) was 0.9 and the ALP (72 h, time 3 day) was 1905.6 IU/L. For the same compound, the ALT (72 h, time 3 day) was 60.6 IU/L, the AST (72 h, time 3 day) was 79.2 IU/L and the BUN (72 h, time 3 day) was 13.6 mg/dL. For the same compound, the CRE (72 h, time 3 day) was 0.2 mg/dL, the Ca (72 h, time 3 day) was 11.1 mg/dL and the Cl (72 h, time 3 day) was 106.8 meq/L. It also gave a DBIL (72 h, time 3 day) of 0.01 mg/dL, a GLC (72 h, time 3 day) of 172.6 mg/dL and an IP (72 h, time 3 day) of 7.4 mg/dL. It also gave a K (72 h, time 3 day) of 4 meq/L, an LDH (72 h, time 3 day) of 59.2 IU/L and a Na (72 h, time 3 day) of 144 meq/L. It also gave a PL (72 h, time 3 day) of 130 mg/dL, an RALB (72 h, time 3 day) of 2.6 g/dL and a TBIL (72 h, time 3 day) of 0.064 mg/dL. The TC (72 h, time 3 day) was 76.8 mg/dL, the TG (72 h, time 3 day) was 51.8 mg/dL and the TP (72 h, time 3 day) was 5.4 g/dL. For the same compound, the gamma-GTP (72 h, time 3 day) was 1 IU/L, the TERMINAL_BW ([…], time 7 day) was 237.3 g and the TERMINAL_BW ([…], time 14 day) was 281.9 g. It also gave a TERMINAL_BW ([…], time 28 day) of 389.2 g, an APTT ([…], time 7 day) of 16.2 s and a Bas ([…], time 7 day) of 0%. It also gave an Eos ([…], time 7 day) of 1%, a Fbg ([…], time 7 day) of 269.2 mg/dL and a Hb ([…], time 7 day) of 13.7 g/dL. The Ht ([…], time 7 day) was 39.9%, the Lym ([…], time 7 day) was 77.8% and the MCH ([…], time 7 day) was 21.8 pg. The MCHC ([…], time 7 day) was 34.3%, the MCV ([…], time 7 day) was 63.4 fL and the Mono ([…], time 7 day) was 3.2%. For the same compound, the Neu ([…], time 7 day) was 17.6%, the PT ([…], time 7 day) was 12.1 s and the Plat ([…], time 7 day) was 124.4 x10_4/uL. The RBC ([…], time 7 day) was 629 x10_4/ul, the Ret ([…], time 7 day) was 5.2% and the WBC ([…], time 7 day) was 68.8 x10_2/uL. For the same compound, the APTT ([…], time 14 day) was 16.9 s, the Bas ([…], time 14 day) was 0% and the Eos ([…], time 14 day) was 1%. For the same compound, the Fbg ([…], time 14 day) was 302.6 mg/dL, the Hb ([…], time 14 day) was 13.8 g/dL and the Ht ([…], time 14 day) was 39.6%. It also gave a Lym ([…], time 14 day) of 80.6%, an MCH ([…], time 14 day) of 20.5 pg and an MCHC ([…], time 14 day) of 34.9%. For the same compound, the MCV ([…], time 14 day) was 59 fL, the Mono ([…], time 14 day) was 2.6% and the Neu ([…], time 14 day) was 15.4%. For the same compound, the PT ([…], time 14 day) was 14 s, the Plat ([…], time 14 day) was 109.7 x10_4/uL and the RBC ([…], time 14 day) was 672.8 x10_4/ul. The Ret ([…], time 14 day) was 4.4%, the WBC ([…], time 14 day) was 64.6 x10_2/uL and the APTT ([…], time 28 day) was 18.8 s. For the same compound, the Bas ([…], time 28 day) was 0%, the Eos ([…], time 28 day) was 1.2% and the Fbg ([…], time 28 day) was 289 mg/dL. For the same compound, the Hb ([…], time 28 day) was 15 g/dL, the Ht ([…], time 28 day) was 42.9% and the Lym ([…], time 28 day) was 81.2%. For the same compound, the MCH ([…], time 28 day) was 19.7 pg, the MCHC ([…], time 28 day) was 35% and the MCV ([…], time 28 day) was 56.4 fL. It also gave a Mono ([…], time 28 day) of 2.2%, a Neu ([…], time 28 day) of 15% and a PT ([…], time 28 day) of 14 s. It also gave a Plat ([…], time 28 day) of 108.7 x10_4/uL, an RBC ([…], time 28 day) of 760.2 x10_4/ul and a Ret ([…], time 28 day) of 2.5%. It also gave a WBC ([…], time 28 day) of 77.4 x10_2/uL, a KIDNEY_L ([…], time 7 day) of 1 g and a KIDNEY_R ([…], time 7 day) of 1 g. The KIDNEY_TOTAL ([…], time 7 day) was 2 g, the KIDNEY_L ([…], time 14 day) was 1.1 g and the KIDNEY_R ([…], time 14 day) was 1.1 g. The KIDNEY_TOTAL ([…], time 14 day) was 2.2 g, the KIDNEY_L ([…], time 28 day) was 1.3 g and the KIDNEY_R ([…], time 28 day) was 1.3 g. For the same compound, the KIDNEY_TOTAL ([…], time 28 day) was 2.6 g, the LIVER ([…], time 7 day) was 10.4 g and the LIVER ([…], time 14 day) was 12.2 g. For the same compound, the LIVER ([…], time 28 day) was 15.2 g, the A/G ([…], time 7 day) was 0.9 and the ALP ([…], time 7 day) was 1395.8 IU/L. For the same compound, the ALT ([…], time 7 day) was 43.4 IU/L, the AST ([…], time 7 day) was 69.4 IU/L and the BUN ([…], time 7 day) was 13.4 mg/dL. For the same compound, the CRE ([…], time 7 day) was 0.2 mg/dL, the Ca ([…], time 7 day) was 11 mg/dL and the Cl ([…], time 7 day) was 106.8 meq/L. For the same compound, the DBIL ([…], time 7 day) was 0.008 mg/dL, the GLC ([…], time 7 day) was 184 mg/dL and the IP ([…], time 7 day) was 7.2 mg/dL. The K ([…], time 7 day) was 4.6 meq/L, the LDH ([…], time 7 day) was 65.6 IU/L and the Na ([…], time 7 day) was 145 meq/L. For the same compound, the PL ([…], time 7 day) was 138.8 mg/dL, the RALB ([…], time 7 day) was 2.7 g/dL and the TBIL ([…], time 7 day) was 0.066 mg/dL. It also gave a TC ([…], time 7 day) of 87.4 mg/dL, a TG ([…], time 7 day) of 51.2 mg/dL and a TP ([…], time 7 day) of 5.9 g/dL. For the same compound, the gamma-GTP ([…], time 7 day) was 1 IU/L, the A/G ([…], time 14 day) was 0.9 and the ALP ([…], time 14 day) was 1372.2 IU/L. For the same compound, the ALT ([…], time 14 day) was 40.6 IU/L, the AST ([…], time 14 day) was 61.6 IU/L and the BUN ([…], time 14 day) was 13.6 mg/dL. For the same compound, the CRE ([…], time 14 day) was 0.2 mg/dL, the Ca ([…], time 14 day) was 11.3 mg/dL and the Cl ([…], time 14 day) was 106.2 meq/L. The DBIL ([…], time 14 day) was 0.01 mg/dL, the GLC ([…], time 14 day) was 176.8 mg/dL and the IP ([…], time 14 day) was 6.6 mg/dL. For the same compound, the K ([…], time 14 day) was 4.3 meq/L, the LDH ([…], time 14 day) was 53 IU/L and the Na ([…], time 14 day) was 142 meq/L. It also gave a PL ([…], time 14 day) of 155.8 mg/dL, an RALB ([…], time 14 day) of 2.8 g/dL and a TBIL ([…], time 14 day) of 0.058 mg/dL. For the same compound, the TC ([…], time 14 day) was 89 mg/dL, the TG ([…], time 14 day) was 85.2 mg/dL and the TP ([…], time 14 day) was 5.9 g/dL. The gamma-GTP ([…], time 14 day) was 1 IU/L, the A/G ([…], time 28 day) was 0.8 and the ALP ([…], time 28 day) was 1102.4 IU/L. The ALT ([…], time 28 day) was 49.8 IU/L, the AST ([…], time 28 day) was 65.6 IU/L and the BUN ([…], time 28 day) was 16 mg/dL. It also gave a CRE ([…], time 28 day) of 0.2 mg/dL, a Ca ([…], time 28 day) of 11.1 mg/dL and a Cl ([…], time 28 day) of 106.6 meq/L. For the same compound, the DBIL ([…], time 28 day) was 0.018 mg/dL, the GLC ([…], time 28 day) was 180.2 mg/dL and the IP ([…], time 28 day) was 5.8 mg/dL. The K ([…], time 28 day) was 4.2 meq/L, the LDH ([…], time 28 day) was 47.6 IU/L and the Na ([…], time 28 day) was 143.6 meq/L. For the same compound, the PL ([…], time 28 day) was 147 mg/dL, the RALB ([…], time 28 day) was 2.7 g/dL and the TBIL ([…], time 28 day) was 0.058 mg/dL. For the same compound, the TC ([…], time 28 day) was 77 mg/dL, the TG ([…], time 28 day) was 101.6 mg/dL and the TP ([…], time 28 day) was 6.1 g/dL. The gamma-GTP ([…], time 28 day) was 1 IU/L.
